Measurements taken from patent US7576207B2, “Spirocyclic heterocyclic derivatives and methods of their use” (Adolor Corporation, priority 2006, dated 2009).

Assays:
[1] = target: T1, cloned human δ opioid receptors (Homo sapiens, UniProt P41143); test: Receptor-mediated [35S]GTPγS binding, δ opioid receptor; type: biochemical; conditions: stimulation of [35S]GTPγS binding to membranes containing cloned human δ opioid receptors; read-out: in vitro δ agonist activity EC50
T1 construct: expressed in transfected cells; host or cells: CHO cells
T1 sequence (P41143 whole entry): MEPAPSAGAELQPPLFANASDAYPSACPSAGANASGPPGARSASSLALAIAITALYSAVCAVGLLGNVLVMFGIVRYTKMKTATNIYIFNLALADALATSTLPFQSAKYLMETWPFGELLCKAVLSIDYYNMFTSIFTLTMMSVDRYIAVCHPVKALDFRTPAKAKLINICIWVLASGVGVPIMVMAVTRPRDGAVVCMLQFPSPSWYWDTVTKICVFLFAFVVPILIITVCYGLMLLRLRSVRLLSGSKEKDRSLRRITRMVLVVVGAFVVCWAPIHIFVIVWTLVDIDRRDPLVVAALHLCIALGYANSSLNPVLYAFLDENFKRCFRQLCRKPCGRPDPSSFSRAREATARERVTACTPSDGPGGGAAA
Method: The potency and efficacy of compounds at each of the receptors are assessed by modifications of the methods of Selley, et al., 1997 and Traynor and Nahorski, 1995 using receptor-mediated [S]GTPγS binding in the same membrane preparations used to measure receptor binding. Assays are carried out in 96-well FlashPlates® (Perkin Elmer Life Sciences, Inc, Boston, Mass.). Membranes prepared from CHO cells expressing the appropriate receptor (50-100 μg of protein) are added to assay mixtures containing agonist with or without antagonists, 100 pM [^35S]GTPγS (approx. 100,000 dpm), 3.0 μM GDP, 75 mM NaCl, 15 mM MgCl2, 1.0 mM ethylene glycol-bis(β-aminoethyl ether)-N,N,N′,N′-tetracetic acid, 1.1 mM dithiothreitol, 10 μg/mL leupeptin, 10 μg/mL pepstatin A, 200 μg/mL bacitracin, and 0.5 μg/mL aprotinin in 50 mM Tris-HCl buffer, pH 7.8. After incubation at room temperature for one hour, the plates are sealed, centrifuged at 800×g in a swinging bucket rotor for 5 minutes and bound radioactivity determined with a TopCount microplate scintillation counter (Packard Instrument Co., Meriden, Conn.).
EC50 values for agonists are determined from nonlinear regression fits of 8- or 12-point titration curves to the 4-parameter equation for a sigmoidal dose-response with a slope factor of 1.0 using GraphPad Prism® version 3.00 for Windows (GraphPad Software, San Diego, Calif.).

[2] = target: T1, cloned human δ opioid receptors; test: [3H]diprenorphine receptor binding, δ opioid receptor; conditions: inhibition of [3H]diprenorphine binding; Cheng-Prusoff correction; read-out: affinity (expressed as Ki value), δ opioid receptor
Method: (§1) The potencies of the final compounds found in Examples 1A-9D were determined by testing the ability of a range of concentrations of each compound to inhibit the binding of the non-selective opioid antagonist, [^3H]diprenorphine, to the cloned human μ, ? and δ opioid receptors, expressed in separate cell lines. IC50 values were obtained by nonlinear analysis of the data using GraphPad Prism version 3.00 for Windows (GraphPad Software, San Diego). Ki values were obtained by Cheng-Prusoff corrections of IC50 values.
(§2) The receptor binding method (DeHaven and DeHaven-Hudkins, 1998) was a modification of the method of Raynor et al. (1994). […] The filters were rinsed 4 times with 1 mL of cold 50 mM Tris HCl, pH 7.8 and radioactivity remaining on the filters determined by scintillation spectroscopy. Nonspecific binding was determined by the minimum values of the titration curves and was confirmed by separate assay wells containing 10 μM naloxone. Ki values were determined by Cheng-Prusoff corrections of IC50 values derived from nonlinear regression fits of 12 point titration curves using GraphPad Prism® version 3.00 for Windows (GraphPad Software, San Diego, Calif.).
(§3) To determine the equilibrium dissociation constant for the inhibitors (Ki), radioligand bound (cpm) in the presence of various concentrations of test compounds was measured. […]

[3] = target: T2, cloned human μ opioid receptors (Homo sapiens, UniProt P35372); test: [3H]diprenorphine receptor binding, μ opioid receptor; conditions: inhibition of [3H]diprenorphine binding; Cheng-Prusoff correction; read-out: affinity (expressed as Ki value), μ opioid receptor
T2 construct: expressed in transfected cells; host or cells: CHO cells
T2 sequence (P35372 whole entry): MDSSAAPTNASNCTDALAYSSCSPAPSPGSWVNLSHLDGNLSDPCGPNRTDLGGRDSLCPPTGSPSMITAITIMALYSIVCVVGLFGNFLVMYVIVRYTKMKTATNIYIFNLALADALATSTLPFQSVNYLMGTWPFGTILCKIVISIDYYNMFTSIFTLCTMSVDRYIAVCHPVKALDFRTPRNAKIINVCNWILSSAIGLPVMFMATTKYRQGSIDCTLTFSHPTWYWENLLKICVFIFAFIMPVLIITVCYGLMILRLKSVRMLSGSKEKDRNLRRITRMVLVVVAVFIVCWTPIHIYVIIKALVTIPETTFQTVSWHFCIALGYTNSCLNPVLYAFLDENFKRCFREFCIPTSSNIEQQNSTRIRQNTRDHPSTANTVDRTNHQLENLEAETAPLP
Method: as §1, §2, §3

[4] = target: T3, cloned human κ opioid receptors (Homo sapiens, UniProt P41145); test: [3H]diprenorphine receptor binding, κ opioid receptor; conditions: inhibition of [3H]diprenorphine binding; Cheng-Prusoff correction; read-out: affinity (expressed as Ki value), κ opioid receptor
T3 construct: expressed in transfected cells; host or cells: CHO cells
T3 sequence (P41145 whole entry): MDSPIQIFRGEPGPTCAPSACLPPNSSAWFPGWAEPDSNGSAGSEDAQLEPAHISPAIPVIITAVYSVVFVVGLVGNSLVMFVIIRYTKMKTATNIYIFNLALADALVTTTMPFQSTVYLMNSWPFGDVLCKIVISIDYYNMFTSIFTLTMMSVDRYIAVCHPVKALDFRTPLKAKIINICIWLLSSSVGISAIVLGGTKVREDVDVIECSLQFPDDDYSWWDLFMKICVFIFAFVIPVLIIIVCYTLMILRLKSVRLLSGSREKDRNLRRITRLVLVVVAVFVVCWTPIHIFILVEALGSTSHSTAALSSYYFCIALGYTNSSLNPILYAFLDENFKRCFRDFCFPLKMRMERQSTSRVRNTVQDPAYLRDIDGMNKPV
Method: as §1, §2, §3

With `CCNC(=O)c1ccc2c(c1)C(CCCCC(=O)N(CC)CC)CC1(CCNCC1)C2` (stereo not shown) [Example 9D, 4-[(4-N,N-diethylaminocarbonyl)butyl]-spiro[6-N-ethylcarbonyl-1,2,3,4-tetrahydronaphthalene-2,4′-piperidine]] the EC50 [1] was 8.1 nM, the Ki [2] was 0.47 nM and the Ki [3] was 632 nM. It also gave a Ki [4] of 696 nM.
